pEC50: −log10 of the molar value.
Molecular target: T1, Human GPR120 short form (Homo sapiens, UniProt Q5NUL3)
T1 construct: expressed in transfected cells
T1 sequence (Q5NUL3 1-361): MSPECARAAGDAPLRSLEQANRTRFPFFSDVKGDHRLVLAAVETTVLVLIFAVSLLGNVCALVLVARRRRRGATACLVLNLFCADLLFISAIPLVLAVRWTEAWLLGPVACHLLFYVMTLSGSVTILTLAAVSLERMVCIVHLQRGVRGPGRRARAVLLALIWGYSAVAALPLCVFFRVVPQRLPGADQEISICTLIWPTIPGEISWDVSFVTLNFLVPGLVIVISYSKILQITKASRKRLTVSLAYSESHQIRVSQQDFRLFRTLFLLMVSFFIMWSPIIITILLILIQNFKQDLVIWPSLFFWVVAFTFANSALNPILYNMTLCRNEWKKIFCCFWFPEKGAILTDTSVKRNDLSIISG
Assay: Human GPR120 calcium flux assay, Procedure Calcium A
Type: cell-based
Settings: HEK-293 cells expressing human GPR120 short form, 2500 cells/well, FLIPR
Method in brief: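 HEK293 cells stably expressing the human GPR120 short splice variant (NM_001195755.1) were seeded at 2500 cells/well, serum-starved 1 h and loaded with Fluo-4 NW plus probenecid. Compounds (100–0.012 μM solutions, 0.2% final DMSO) were added, and FLIPR calcium flux was read for 300 s. EC50 came from a variable-slope fit (Hill <2) of Fmax−Fmin.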

pEC50 | SMILES
6.45 | Cc1c(CCC(=O)O)ccc(OCc2cccn2-c2ccc(Cl)cc2)c1C [Compound 1, 3-(4-{[1-(4-Chlorophenyl)-1H-pyrrol-2-yl]methoxy}-2,3-dimethylphenyl)propanoic acid]
6.51 | Cc1ccc(-n2ccc(C(F)(F)F)c2COc2c(F)cc(CCC(=O)O)cc2F)cc1 [Compound 39, 3-(3,5-difluoro-4-[[1-(4-methylphenyl)-3-(trifluoromethyl)-1H-pyrrol-2-yl]methoxy]phenyl)propanoic acid]
6.00 | OCCCc1ccc(OCc2c(C(F)(F)F)ccn2-c2ccc(Cl)cc2)c(F)c1F [Compound 29, 3-(4-{[1-(4-Chlorophenyl)-3-(trifluoromethyl)-1H-pyrrol-2-yl]methoxy}-2,3-difluorophenyl)propan-1-ol]
6.29 | CCc1ccc(-n2ccc(C(F)(F)F)c2COc2ccc(CCC(=O)O)c(F)c2F)cc1 [Compound 34, 3-(4-[[1-(4-ethylphenyl)-3-(trifluoromethyl)-1H-pyrrol-2-yl]methoxy]-2,3-difluorophenyl)propanoic acid]

Source: patent US8912227B1, “Bicyclic pyrrole derivatives useful as agonists of GPR120” (Janssen Pharmaceutica NV, priority 2014, dated 2014)
